Source: the NIST ThermoML archive (doi:10.1016/j.jct.2016.08.006)

What was measured:
[1] = molar heat capacity at constant pressure; xn = mol fraction of the nth substance listed; conditions: 101.3 kPa, Liquid, Small sample (50 mg) DSC, x2 = 0
[2] = molar heat capacity at constant pressure; conditions: 101.3 kPa, Liquid, Small sample (50 mg) DSC

O [water] + NCCN1CCNCC1
[1]
Conditions	molar heat capacity at constant pressure [J/K/mol]
303.2 K	75.26
308.2 K	75.27
313.2 K	75.29
318.2 K	75.31
323.2 K	75.29
328.2 K	75.32
333.2 K	75.41
338.2 K	75.44
343.2 K	75.48
348.2 K	75.55
353.2 K	75.78

CNCCN(C)C [N,N,N'-trimethylethylenediamine]
[2]
Conditions	molar heat capacity at constant pressure [J/K/mol]
303.2 K	258.3
308.2 K	260
313.2 K	262.7
318.2 K	265.3
323.2 K	269.2
328.2 K	272.7
333.2 K	276
338.2 K	278.9
343.2 K	281.3
348.2 K	283.4
353.2 K	286.6

Cc1ccccc1 [toluene]
[2]
Conditions	molar heat capacity at constant pressure [J/K/mol]
303.2 K	159.1
308.2 K	160.4
313.2 K	161.6
318.2 K	163
323.2 K	164.1
328.2 K	165.5
333.2 K	167
338.2 K	168.6
343.2 K	170.4
348.2 K	172.8
353.2 K	175.1

NCCN1CCNCC1 [N-(β-aminoethyl)piperazine)]
[2]
Conditions	molar heat capacity at constant pressure [J/K/mol]
303.2 K	289.7
308.2 K	290.8
313.2 K	293.1
318.2 K	294.7
323.2 K	296.9
328.2 K	298.5
333.2 K	300.7
338.2 K	302.2
343.2 K	303.3
348.2 K	303.6
353.2 K	304.6

O [water] + CNCCN(C)C
[1]
Conditions	molar heat capacity at constant pressure [J/K/mol]
303.2 K	75.26
308.2 K	75.27
313.2 K	75.29
318.2 K	75.31
323.2 K	75.29
328.2 K	75.32
333.2 K	75.41
338.2 K	75.44
343.2 K	75.48
348.2 K	75.55
353.2 K	75.78

O [water]
[2]
Conditions	molar heat capacity at constant pressure [J/K/mol]
303.2 K	75.26
308.2 K	75.27
313.2 K	75.29
318.2 K	75.31
323.2 K	75.29
328.2 K	75.32
333.2 K	75.41
338.2 K	75.44
343.2 K	75.48
348.2 K	75.55
353.2 K	75.78
